What was measured:
[1] = tested on: human LECs-CCCs freshly removed from cataract operation; assay: In situ treatment of LECs attached to capsulorhexis lens capsule (LECs-CCC); assay type: cell-based
Method: The in situ effects of a treatment solution comprising dihydrochlorothiazide (DHCT) (a cotransport interference agent from the group of the thiazide and related diuretics) and hyperosmotic NaCl on human LECs is examined. The treatment is tested on LECs that are still attached to a continuous curvilinear capsulorhexis lens capsule (LECs-CCC) which are freshly removed from a human cataract operation.
The LECs-CCCs are obtained from a cataract operation and immediately put in freshly prepared Eagle's Minimum Essential Medium (MEM) supplemented with 2 mM glutamine, 25 mmol/L Hepes (pH 7.4) without foetal cow serum (FCS) and is transferred to the laboratory for evaluation. Viable LECs are identified by staining the LECs-CCCs for five minutes with 0.2% Trypan Blue. The sheets containing more than 70% viable LECs are used to assess the efficacy of the treatment. […]
In the first step, a hyperosmotic solution of NaCl is prepared by making a stock solution of 2 M NaCl by adding 58.44 g NaCl (supplied by Sigma Chemical Co., U.S.) to 500 ml dH2O. The desired concentration of osmotic NaCl is prepared by diluting the 2M stock solution with dH2O. For example, to make a hyperosmotic solution of 170 mM NaCl, the 2M NaCl stock solution was diluted with dH2O at a ratio of […]. To make a hyperosmotic solution of 200 mM NaCl, the 2M NaCl stock solution is diluted with dH2O at a ratio of 1 to 9. Final osmolarities (mOsm/kg/H2O) are determined by a freezing point depression method using cryoscopic osmometry.
In the second step, DHCT stock solution is made by adding 25 mg DHCT to 1 ml dH2O. […]
The treatment is applied by exposing the LECs-CCCs for five minutes in a small petri dish containing the treatment solution. The treatment solution is removed after five minutes exposure by a syringe and then the fresh PBS is added in the petri dish to wash away the treatment solution. The LECs-CCCs are washed three times. The changes of the LECS are monitored under a microscope. Microscope photographs are taken at 0, 2 and 5 minutes and after wash.

in vivo rabbit eyes = assay: In vivo prevention of PCO after cataract operation in rabbit eyes; settings: DHCT and hyperosmotic NaCl
Method: The experimental group includes sixteen rabbit eyes and the control group includes four rabbit eyes. A sham cataract operation is performed on the control animals. The therapy is introduced to the others.
The pupil of each rabbit eye is preoperatively dilated with topical G Phenylephrine 10% (Alcon Labs., Inc., China) and G Cyclopentolate 1% (Bausch & Lomb Pharm., Inc., USA) three times in one hour. The rabbits are anesthetized with ketamine hydrochloride (5 mg kg-1) and xylazine hydrochloride (2 mg kg-1) and placed on an operating table. A topical anesthetic (Dieaine hydrochloride 1%) is used every five minutes on two occasions. A wire lid speculum is placed to hold the eyelids open.
A 3.2 mm scleral tunnel incision into the eye is formed at the temporal limbus. The anterior chamber is maintained with viscoelastic substances and a 4-5 mm diameter continuous curvilinear capsularhexis (CCC) is made on the anterior surface of the lens to open its bag. The treatment solution is first introduced in the LECs by hydrodissection. This ensures that the treatment fluid immediately reaches under the entire anterior capsule/LECs. This process allows for (i) separation of the lens cortex from the capsule and lens epithelium, making removal of the lens cortex easier at a later stage of the operation and (ii) the LECs to be exposed to the treatment for enough time (more than five minutes in total time).
The crystalline lens is then removed using phacoemulsification (Universal II, Alcon Labs., Inc., China). The remaining cortex is aspirated thoroughly and removed as completely as possible to expose the LECs. The lens capsular bag is then partially filed with viscoelastic material in order to maintain its shape. The viscoelastic material should not cover the LECs when the treatment solution is applied.
The treatment is spread over the inner surface of the anterior capsular bag (where the LECs attach). The anterior capsular is continuously filled by using a syringe with a bent needle. Care is taken not to over flow the bag. After the treatment solution covered the capsule bag, it is left for five minutes and then removed using a syringe.
In a few cases, IOLs are inserted. […] At the same time, the incision is enlarged to 6.0 mm and a posterior ocular lens (IOLs) (poly-methyl methacrylate, PMMA) with a 6.5 mm optic is prepared and placed into the capsular bag.
The wound is closed with or without suture.
At the completion of the surgical procedure, each rabbit eye receives subconjunctival dexamethasone (0.25 ml) and gentamicin (0.25 ml). Postoperatively, atropine sulphate 1% ophthalmic solution and neomycin sulphate-polymyxin sulphate-dexamethasone ophthalmic ointment are administered twice daily for three weeks.
The animals are evaluated for three weeks and ten weeks. […] All rabbits are evaluated by slitlamp and scored for ocular responses at 1 day and at 1, 2 and 3 weeks. (See FIG. 17, Table 1.) Three and ten weeks after surgery, the animals are anesthetized using a 2 ml intramuscular injection of 11:1 mixture of ketamine hydrochloride and xylazine 20 mg/ml and then killed with a 2 ml intravenous injection of sodium pentobarbital.
The eye globes are enucleated (some of them fixed in neutral buffered formalin 10% solution for 24 hours) and are bisected coronally just anterior to the equator. Gross examination is performed to assess. PCO development. Photographs are taken from behind (Miyake-Apple posterior photographic technique) by using a digital camera fitted to an operating microscope (Leica/Wild MZ-8, Vashaw Scientific, Inc.).
The extent and severity of PCO is scored (see FIG. 17, Table 1) according to methods reported in the literature. The lens capsules are then fixed and evaluated under a microscope (Olumpus, Optical Co. Ltd.) and photographed with a digital camera.

| Compound | living LECs after rinsing ([1]; 10 or 100 μm gramicidin and PBS) | LEC changes after exposure ([1]; 10 or 100 μm gramicidin and PBS, five minutes) | LEC changes after exposure ([1]; 170 or 200 mM NaCl and 200 or 300 μm DHCT, pH ±7.8, five minutes) | living LECs after wash ([1]; 200 μm DHCT and hyperosmotic ≦200 mM NaCl) | Soemmering's ring (in vivo rabbit eyes) | intraocular inflammatory reaction and deposits (in vivo rabbit eyes; 3 and 10 weeks post-treatment) | development of central PCO (CPCO) and peripheral PCO (PPCO) (in vivo rabbit eyes; three or ten weeks post-treatment) | lens epithelial cells in pupil area (phase contrast) (in vivo rabbit eyes; three weeks after surgery, no IOLs insertion) |
| --- | --- | --- | --- | --- | --- | --- | --- | --- |
| gramicidin | no living cells remain | shrink and large gaps gradually form between the cells. The shrinking cells then gradually round up and burst | – | – | – | – | – | – |
| NS(=O)(=O)c1cc2c(cc1Cl)NCNS2(=O)=O [DHCT, dihydrochlorothiazide] | – | – | shrink and gradually large gaps form between the cells. The shrinking cells then gradually round up and burst | no living cells can be observed | Most eyes did develop some degree of Soemmering's ring | minimal intraocular inflammatory reaction and deposits on the lens capsule surface | No central PCO(CPCO) (the area within the pupillary area) and peripheral PCO (PPCO) (within 6-6.5 mm outside the pupillary area) is found to have developed | no remaining lens epithelial cells |

From US7875270B2, “Treatment solution and method for preventing posterior capsular opacification by selectively inducing detachment and/or death of lens epithelial cells” (Abbott Medical Optics Inc., priority 2002, dated 2011)
